Data reported in ChEMBL document CHEMBL3351362, “In vitro antiparasitic activity of new thiosemicarbazones in strains of Trypanosoma cruzi” (Eur J Med Chem, 2014).
Values after ≈ are worked out from the molar mass of the structure shown.

How the values were obtained:
[1] = Induction of apoptosis in human platelets assessed as viable cells after 10 mins using Annexin V/propidium iodide by flow cytometry (reference value: 89.61 %); type: cell-based, Platelet; settings: read-out: Activity
[2] = Induction of apoptosis in human monocytes assessed as early apoptotic cells using Annexin V/propidium iodide by flow cytometry (reference value: 2.18 %); type: cell-based; settings: monocyte
[3] = Induction of apoptosis in human monocytes assessed as viable cells using Annexin V/propidium iodide by flow cytometry (reference value: 97.53 %); type: cell-based, Monocyte; settings: read-out: Activity
[4] = tested on: Trypanosoma cruzi; experiment: Trypanocidal activity against epimastigote forms of Trypanosoma cruzi Punta Lobos after 24 hrs; type: functional
[5] = Induction of apoptosis in human monocytes assessed as necrotic cells using Annexin V/propidium iodide by flow cytometry (reference value: 0.02 %); type: cell-based; settings: monocyte
[6] = Induction of apoptosis in human platelets assessed as early apoptotic cells after 10 mins using Annexin V/propidium iodide by flow cytometry (reference value: 10.30 %); type: cell-based; settings: platelet
[7] = tested on: Trypanosoma cruzi; experiment: Trypanocidal activity against epimastigote forms of Trypanosoma cruzi Queretaro after 24 hrs; type: functional
[8] = Induction of apoptosis in human monocytes assessed as late apoptotic cells using Annexin V/propidium iodide by flow cytometry (reference value: 0.27 %); type: cell-based; settings: monocyte
[9] = Induction of apoptosis in human platelets assessed as necrotic cells after 10 mins using Annexin V/propidium iodide by flow cytometry (reference value: 0.07 %); type: cell-based; settings: platelet
[10] = Induction of apoptosis in human platelets assessed as late apoptotic cells after 10 mins using Annexin V/propidium iodide by flow cytometry (reference value: 0.02 %); type: cell-based; settings: platelet
[11] = Activation of human platelets assessed as CD62P expression at 3.9 ug/ml by flow cytometry relative to control; type: cell-based; settings: platelet

| SMILES | viability at 10 min [1] | Activity [2] | viability [3] | LC50 [4] | Activity [5] | Activity [6] | LC50 [7] | Activity [8] | Activity [9] | Activity [10] | Activity [11] |
| --- | --- | --- | --- | --- | --- | --- | --- | --- | --- | --- | --- |
| NC(=S)N/N=C/c1ccc(Sc2ccccc2C(F)(F)F)o1 | 82.6% | 26.47% | 70.7% | 11.4 µg/mL (≈ 33 µM) | 0.24% | 17.31% | 14 µg/mL (≈ 40.5 µM) | 2.63% | 0.05% | 0.06% | 22.14% |
| NC(=S)N/N=C/c1ccc(Sc2cccc(C(F)(F)F)c2)o1 | 90.9% | 22.9% | 66.7% | 17.8 µg/mL (≈ 51.5 µM) | 2.57% | 8.87% | 7.8 µg/mL (≈ 22.6 µM) | 7.87% | 0.17% | 0.05% | 19.06% |
| NC(=S)N/N=C/c1ccc(Sc2ccc(C(F)(F)F)cc2)o1 | 79.4% | 21.44% | 72.9% | 8.3 µg/mL (≈ 24 µM) | 1.18% | 20.39% | 29.5 µg/mL (≈ 85.4 µM) | 4.48% | 0.16% | 0.08% | 18.56% |
| NC(=S)N/N=C/c1ccc(Sc2ccc(C(F)(F)F)cc2[N+](=O)[O-])o1 | 87.2% | 17.05% | 79.4% | 3.2 µg/mL (≈ 8.2 µM) | 0.7% | 12.48% | 3.4 µg/mL (≈ 8.71 µM) | 2.81% | 0.09% | 0.24% | 23.63% |
| NC(=S)N/N=C/c1ccc(Sc2c(F)c(F)c(C(F)(F)F)c(F)c2F)o1 | 87.4% | 21.91% | 72.7% | 5.1 µg/mL (≈ 12.2 µM) | 0.62% | 12.55% | 4.6 µg/mL (≈ 11 µM) | 4.76% | 0.04% | 0.03% | 23.35% |
| O=C(Cn1ccnc1[N+](=O)[O-])NCc1ccccc1 [BENZNIDAZOLE] | 76.9% | 18.79% | 75.9% | 4 µg/mL (≈ 15.4 µM) | 0.51% | 22.95% | 6.5 µg/mL (≈ 25 µM) | 4.78% | 0.12% | 0.02% | 42.51% |
| CN(C)c1ccc(C(=C2C=CC(=[N+](C)C)C=C2)c2ccc(N(C)C)cc2)cc1.[Cl-] [GENTIAN VIOLET] |  |  |  | 15.8 µg/mL |  |  | 6.2 µg/mL |  |  |  |  |
